From patent publication US7247734B2 (Vernalis (Cambridge) Limited, priority 2001, dated 2007) come the findings set out here.

For assay [1], the system named is HSP70 in HCT116 cells. Nature of the assay: Cell-based ELISA for HSP70 expression. Further details: species or system human. The note with it: for % increase in HSP70 (Normalised Europium Counts compared to DMSO controls): HCT116, 10 μM compound. The source says: Cell-based ELISA methods (see, e.g., Stockwell et al., 1999; Versteeg et al., 2000) offer several advantages for evaluating the pharmacodynamic effects of novel mechanism-based inhibitors and may be the method of choice for comparing inhibitors that are identified during the iterative process of lead identification and optimisation. The technique can be used to rapidly rank the effectiveness of compounds as well as to investigate the molecular mechanisms of their action. The increased sample throughput possible with ELISA means that compounds can be simultaneously studied in multiple replicates at different doses and exposure times. […] The assays are carried out directly on cells grown and treated in microtitre plates, thereby removing the necessity for preparing cell lysates. ELISA techniques can in theory be applied to any cellular protein or post-translational modification for which an antibody is available and results are at least semi-quantitative.
Chemicals are of the highest purity commercially available. • (1) Human colon tumour cell lines (e.g., HCT116 and HT29 from American Tissue Culture Collection, ATCC) grown in Dulbecco's modified Eagle's medium (DMEM) (CSSD, Institute of Cancer Research, London, UK) supplemented with […] glucose, 10% foetal bovine serum (FBS), 200 mM L-glutamine, and 5 ml non-essential amino acids in a humidified atmosphere of 5% CO2 at 37° C. • (2) 96 well Falcon clear microtitre tissue culture plates (BD Labware, Hospital Management and Supplies, Ltd., Northampton, UK). • (3) DMSO diluted in dH2O (8%). • (4) HSP90 inhibitors at required concentration dissolved in DMSO. • (5) Fixing solution (0.25% glutaraldehyde, 3% paraformaldehyde and 0.25% Triton-X 100) (all from Sigma Aldrich Ltd, Poole, UK). • (6) Blocking solution (5% dried milk (Marvel) in PBS) prepared daily. • (7) Anti HSP70 monoclonal antibody (SPA 810, Bioquote, York, UK). • (8) DELFIA® wash buffer, enhancement solution, assay buffer and Europium labelled anti-mouse IgG (1244–1330) (PerkinElmer Life Sciences, Milton Keynes, UK). • (9) BCA protein assay reagents (Perbio Science UK Ltd., Chester, UK). Method
Incubate at 37° for 30 min. • (6) Wash plates twice in PBS using an automated washer (Wellwash 5000 ten plate stacker-washer or Wellwash Ascent single plate washer, Thermo Labsystems, Basingstoke, UK). • (7) Block the plates by addition of blocking solution (100 μl) and incubate for 30 min. • (8) Add 100 μl primary antibody diluted to 0.95 μg/ml in PBS to each well and incubate plate for 1.5 h. Wash plates once with DELFIA® wash solution. • (9) Add 100 μl Europium labelled anti-mouse IgG diluted in DELFIA® assay buffer to 75 ng/ml and incubate for 1 hour. Wash plates once with DELFIA® wash solution as before. • (10) Add 100 μl DELFIA® enhancement solution to each well. • (11) Measure the fluorescence (615 nm) in Victor 2 1420 multilabel counter (Perkin Elmer Life Sciences, Milton Keynes, UK) using time-resolved measurement mode. • (12) Wash plates once with PBS and measure protein concentration by the addition of 200 μl BCA reagent to each well, shake for 1–2 min and incubate for 30 mins at 37° C. Read absorption at 570 nm. • (13) Express ELISA results by normalising to protein in the well (Eu counts (cpm) divided by OD@ 570 nm). Compare the effect of HSP90 inhibitors on HSP70 expression with DMSO treated controls. Comments • (1) Cells plated into 96 well plates are incubated in a plastic box to reduce evaporation from the outside wells. […]
On the technique in general: In an ELISA, binding on a coated surface is turned into a signal by an enzyme label.

Assay [2] relates to HCT116 cells. Kind of assay: Cellular protein by BCA assay after compound exposure (ELISA plates). Type of assay: cell-based, human. The note with it: for Cellular Protein (% DMSO controls): HCT116, 10 μM compound. The procedure: Incubate at 37° for 30 min. • (6) Wash plates twice in PBS using an automated washer (Wellwash 5000 ten plate stacker-washer or Wellwash Ascent single plate washer, Thermo Labsystems, Basingstoke, UK). • (7) Block the plates by addition of blocking solution (100 μl) and incubate for 30 min. • (8) Add 100 μl primary antibody diluted to 0.95 μg/ml in PBS to each well and incubate plate for 1.5 h. Wash plates once with DELFIA® wash solution. • (9) Add 100 μl Europium labelled anti-mouse IgG diluted in DELFIA® assay buffer to 75 ng/ml and incubate for 1 hour. Wash plates once with DELFIA® wash solution as before. • (10) Add 100 μl DELFIA® enhancement solution to each well. • (11) Measure the fluorescence (615 nm) in Victor 2 1420 multilabel counter (Perkin Elmer Life Sciences, Milton Keynes, UK) using time-resolved measurement mode. • (12) Wash plates once with PBS and measure protein concentration by the addition of 200 μl BCA reagent to each well, shake for 1–2 min and incubate for 30 mins at 37° C. Read absorption at 570 nm. • (13) Express ELISA results by normalising to protein in the well (Eu counts (cpm) divided by OD@ 570 nm). Compare the effect of HSP90 inhibitors on HSP70 expression with DMSO treated controls. Comments • (1) Cells plated into 96 well plates are incubated in a plastic box to reduce evaporation from the outside wells. In addition, ELISA incubation steps are carried out in a 37° C. laboratory incubator and in a moist environment e.g., plastic box lined with damp tissue paper. • (2) All additions to the microtitre plate can be achieved using a multichannel pipette or for larger numbers of plates an automated dispenser such as a Multidrop (Thermo Labsytems, Basingstoke, UK). • (3) For convenience, if the effects of compounds are being studied at several time points the ELISA can be carried out in batches, plates being stored (in a container) at 4° C. following the fixation step. In this case the plates are washed only once following fixation and again immediately before the first ELISA step (step 6 above). In addition all the plates can be stored for subsequent protein estimation. • (4) Reproducibility of both the measured Europium counts and the protein measurements was between 10–15% (CV). • (5) DELFIA® reagents (see, e.g., Hemmila and Webb, 1997) have been routinely used in cell-based ELISAs. This endpoint provides high sensitivity and the time-resolved measurements reduce interference from non-specific fluorescence. However, it is also possible to use a horse radish peroxidase second antibody conjugate and either a calorimetric (e.g., tetramethylbenzidine) or chemiluminescent reagent (e.g., ECL reagent (Amersham Pharmacia Biotech, Little Chalfont, Bucks, UK) for endpoint measurement. • (6) It is recommended that a blank consisting of second-antibody only (i.e., no first antibody) together with an appropriate first antibody control (e.g., isotype matched IgG) are included in assays during the process of optimising reagent concentrations. Growth Inhibition Assay
The effect of various compounds of the present invention on the expression of the molecular marker HSP70 was determined using the cell-based ELISA and a specific monoclonal antibody to HSP70 in HCT116 cells, as described above. Cellular protein following compound exposure was determined using BCA assay as described in the method.

Turning to `Cc1[nH]nc(-c2ccc(O)cc2O)c1-c1ccc2c(c1)OCCO2` [CCT018157], the “% increase in HSP70 (Normalised Europium Counts compared to DMSO controls)” value came to 103% in assay [1] ((48 h)) and 105% in assay [1] ((time not given)). In addition, the “Cellular Protein (% DMSO controls)” value is listed as 91.3% in assay [2] ((48 h)) and 21.2% in assay [2] ((time not given)).

As for `CCc1cc(-c2n[nH]c(C)c2-c2ccc3c(c2)OCCO3)c(O)cc1O` [CCT018159, 4-[4-(2,3-Dihydro-benzo[1,4]dioxin-6-yl)-5-methyl-1H-pyrazol-3-yl]-6-ethyl-benzene-1,3-diol], the figures for the “% increase in HSP70 (Normalised Europium Counts compared to DMSO controls)” value in assay [1] ((48 h)) and in assay [1] ((time not given)) were 278% and 158%, respectively. The HSP70 induction entry in assay [1] (HCT116, 10 μM, 48 h) is on record as “up to 2.8 fold”. Moreover, the “cellular protein measured by BCA, reduction of DMSO controls” value in assay [2] (HCT116, 10 μM) was 50–80%. For the same compound, the “Cellular Protein (% DMSO controls)” value in assay [2] ((48 h)) turned out to be 50.0%; in assay [2] ((time not given)), 20.8%.
